Assay results published in US9938562B2, “Naphthalene derived chromogenic enzyme substrates” (Glycosynth Limited, priority 2013, dated 2018).
Where two headings read alike, the source gives them in different places.

Assays:
[1] = test system: β-D-glucuronidase-positive strains; experiment: Hydrolysis by glucuronidase-positive strains; format: cell-based
[2] = test system: E. faecalis NCTC 775; experiment: Glucuronide screen, agar plates (CPS ID 3 or Columbia agar); format: cell-based; details: E. faecalis NCTC 775, agar
[3] = test system: clinical isolates of E. coli; experiment: Glucuronide sensitivity screen, agar plates (CPS ID 3 or Columbia agar); format: cell-based
[4] = test system: E. faecium NCTC 7171; experiment: Glucuronide screen, agar plates (CPS ID 3 or Columbia agar); format: cell-based; details: E. faecium NCTC 7171, agar
[5] = test system: E. cloacae; experiment: as above; format: cell-based
[6] = test system: Yersinia enterocolitica NCTC 11176; experiment: Agar plate multi-point inoculation, colour; format: cell-based; details: Columbia agar, FAC 500 mg/L, substrate 300 mg/L, 37° C. 18 h in air
[7] = test system: Providencia rettgeri NCTC 7475; experiment: Agar plate multi-point inoculation, colour; format: cell-based
[8] = test system: Klebsiella pneumoniae NCTC 9528; experiment: Agar plate multi-point inoculation, colour; format: cell-based
[9] = test system: Serratia marcescens NCTC 10211; experiment: Agar plate multi-point inoculation, colour; format: cell-based
[10] = test system: Staphylococcus aureus NCTC 6571; experiment: Agar plate multi-point inoculation, colour; format: cell-based
[11] = test system: range of microorganisms; experiment: Agar plate evaluation with a range of microorganisms (hue, diffusion, background); format: cell-based; details: agar plates with FAC
[12] = test system: Staphylococcus aureus (MRSA) NCTC 11939; experiment: Agar plate multi-point inoculation, colour; format: cell-based; details: Columbia agar, FAC 500 mg/L, substrate 300 mg/L, 37° C. 18 h in air
[13] = test system: Staphylococcus epidermidis NCTC 11047; experiment: Agar plate multi-point inoculation, colour; format: cell-based
[14] = test system: Pseudomonas aeruginosa NCTC 10662; experiment: Agar plate multi-point inoculation, colour; format: cell-based
[15] = test system: Enterobacter cloacae NCTC 11936; experiment: Agar plate multi-point inoculation, colour; format: cell-based
[16] = test system: Bacillus subtilis NCTC 9372; experiment: Agar plate multi-point inoculation, colour; format: cell-based
[17] = test system: Listeria monocytogenes NCTC 11994; experiment: Agar plate multi-point inoculation, colour; format: cell-based
[18] = test system: Salmonella typhimurium NCTC 74; experiment: Agar plate multi-point inoculation, colour; format: cell-based
[19] = test system: Steptococcus pyogenes NCTC 8306; experiment: Agar plate multi-point inoculation, colour; format: cell-based
[20] = test system: Enterococcus faecalis NCTC 775; experiment: Agar plate multi-point inoculation, colour; format: cell-based
[21] = test system: Escherichia coli NCTC 10418; experiment: Agar plate multi-point inoculation, colour; format: cell-based
[22] = test system: Candida albicans ATCC 90028; format: cell-based
[23] = test system: Enterococcus faecium NCTC 7171; experiment: Agar plate multi-point inoculation, colour; format: cell-based
[24] = test system: Acinetobacter baumannii NCTC 19606; experiment: Agar plate multi-point inoculation, colour; format: cell-based
[25] = test system: Burkholderia cepacia NCTC 10931; experiment: Agar plate multi-point inoculation, colour; format: cell-based; details: Columbia agar, FAC 500 mg/L, substrate 300 mg/L, 37° C. 18 h in air
[26] = test system: Candida glabrata NCPF 3943; experiment: Agar plate multi-point inoculation, colour; format: cell-based
[27] = 100 E. coli strains, agar, 18 h incubation

## COC(=O)C1OC(Oc2cc3ccccc3cc2O)C(O)C(O)C1O [Compound 13, DHN-β-D-glucuronide-6′-methyl ester]
[1]
  colour after hydrolysis compared with 12a or 12b: weaker

## NC1CCCCC1.O=C(O)[C@H]1O[C@@H](Oc2c[nH]c3ccc(Br)c(Cl)c23)[C@H](O)[C@@H](O)[C@@H]1O [X-β-D-glucuronide CHA salt]
[2]
  Colour: −
[3]
  % Sensitivity: 79%
  Colour: −
[3]; [27]
  Negative strains: 21
  Positive strains: 79
[3]; E. coli 260262P, agar
  Colour: Green
[3]; E. coli 260280Z, agar
  Colour: Green
[3]; E. coli 260310H, agar
  Colour: Green
[3]; E. coli 260313A, agar
  Colour: −
[3]; E. coli 260316T, agar
  Colour: −
[3]; E. coli 260327V, agar
  Colour: Green
[3]; E. coli 260330Y, agar
  Colour: Green
[3]; E. coli 260333P, agar
  Colour: −
[3]; E. coli 260345F, agar
  Colour: Green
[3]; E. coli 260348K, agar
  Colour: Green
[3]; E. coli 260354W, agar
  Colour: Green
[3]; E. coli 260364H, agar
  Colour: −
[3]; E. coli 260370C, agar
  Colour: Green
[3]; E. coli 260375E, agar
  Colour: Green
[3]; E. coli 260390B, agar
  Colour: −
[3]; E. coli 260396Z, agar
  Colour: Green
[3]; E. coli 260398Q, agar
  Colour: Green
[3]; E. coli 260399E, agar
  Colour: Green
[3]; E. coli 260400N, agar
  Colour: −
[3]; E. coli 260401Q, agar
  Colour: Green
[3]; E. coli 260402H, agar
  Colour: Green
[3]; E. coli 260404W, agar
  Colour: Green
[3]; E. coli 260405P, agar
  Colour: Green
[3]; E. coli 260406A, agar
  Colour: −
[3]; E. coli 260406Y, agar
  Colour: Green
[3]; E. coli 260407F, agar
  Colour: Green
[3]; E. coli 260408C, agar
  Colour: Green
[3]; E. coli 260411Z, agar
  Colour: Green
[3]; E. coli 260412Q, agar
  Colour: Green
[3]; E. coli 260414H, agar
  Colour: Green
[3]; E. coli 260415Y, agar
  Colour: Green
[3]; E. coli 260416W, agar
  Colour: −
[3]; E. coli 260417P, agar
  Colour: Green
[3]; E. coli 260422Y, agar
  Colour: Green
[3]; E. coli 260424P, agar
  Colour: Green
[3]; E. coli 260425A, agar
  Colour: Green
[3]; E. coli 260426F, agar
  Colour: Green
[3]; E. coli 260428T, agar
  Colour: Green
[3]; E. coli 260431N, agar
  Colour: Green
[3]; E. coli 260432E, agar
  Colour: Green
[3]; E. coli 260433H, agar
  Colour: Green
[3]; E. coli 260434Y, agar
  Colour: Green
[3]; E. coli 260435W, agar
  Colour: Green
[3]; E. coli 260436P, agar
  Colour: Green
[3]; E. coli 260437A, agar
  Colour: −
[3]; E. coli 260438F, agar
  Colour: Green
[3]; E. coli 260439C, agar
  Colour: Green
[3]; E. coli 260440S, agar
  Colour: Green
[3]; E. coli 260441G, agar
  Colour: Green
[3]; E. coli 260458Y, agar
  Colour: Green
[3]; E. coli 260459W, agar
  Colour: Green
[3]; E. coli 260463D, agar
  Colour: Green
[3]; E. coli 260464G, agar
  Colour: Green
[3]; E. coli 260471B, agar
  Colour: −
[3]; E. coli 260478N, agar
  Colour: −
[3]; E. coli 260479Q, agar
  Colour: Green
[3]; E. coli 260480M, agar
  Colour: Green
[3]; E. coli 260481J, agar
  Colour: Green
[3]; E. coli 260483R, agar
  Colour: −
[3]; E. coli 260485D, agar
  Colour: Green
[3]; E. coli 260486L, agar
  Colour: Green
[3]; E. coli 260492J, agar
  Colour: Green
[3]; E. coli 260494B, agar
  Colour: Green
[3]; E. coli 260495R, agar
  Colour: −
[3]; E. coli 260497D, agar
  Colour: Green
[3]; E. coli 260502G, agar
  Colour: Green
[3]; E. coli 260503Z, agar
  Colour: Green
[3]; E. coli 260504N, agar
  Colour: Green
[3]; E. coli 260505Q, agar
  Colour: −
[3]; E. coli 260506E, agar
  Colour: Green
[3]; E. coli 260508Y, agar
  Colour: Green
[3]; E. coli 260509W, agar
  Colour: Green
[3]; E. coli 260510R, agar
  Colour: Green
[3]; E. coli 260511X, agar
  Colour: Green
[3]; E. coli 260514G, agar
  Colour: −
[3]; E. coli 260515Z, agar
  Colour: −
[3]; E. coli 260521S, agar
  Colour: Green
[3]; E. coli 260522Z, agar
  Colour: Green
[3]; E. coli 260532S, agar
  Colour: Green
[3]; E. coli 260533G, agar
  Colour: Green
[3]; E. coli 260536Q, agar
  Colour: Green
[3]; E. coli 260537E, agar
  Colour: −
[3]; E. coli 260538H, agar
  Colour: −
[3]; E. coli 260539Y, agar
  Colour: Green
[3]; E. coli 260541R, agar
  Colour: Green
[3]; E. coli 260545G, agar
  Colour: Green
[3]; E. coli 260547N, agar
  Colour: Green
[3]; E. coli 260548Q, agar
  Colour: Green
[3]; E. coli 260549E, agar
  Colour: Green
[3]; E. coli 260553X, agar
  Colour: −
[3]; E. coli 260554D, agar
  Colour: Green
[3]; E. coli 260555L, agar
  Colour: Green
[3]; E. coli 260563B, agar
  Colour: Green
[3]; E. coli 260564R, agar
  Colour: Green
[3]; E. coli 260578D, agar
  Colour: −
[3]; E. coli 2603121P, agar
  Colour: −
[4]
  Colour: −
[5]; E. cloacae 260329R, agar
  Colour: −
[5]; E. cloacae NCTC 11936, agar
  Colour: −

## DHN-6-sulfonic acid-β-D-galactopyranoside sodium salt [Compound 31]
[6]
  Colour: −
[7]
  Colour: +
[8]
  Colour: −
[9]
  Colour: −
[10]
  Colour: −
[11]
  colour (hue) after hydrolysis: purple to maroon colonies
other
  amount dissolved in water: 30 mg
[12]
  Colour: −
[13]
  Colour: −
[14]
  Colour: −
[15]
  Colour: +
[16]
  Colour: −
[17]
  Colour: −
[18]
  Colour: −
[19]
  Colour: −
[20]
  Colour: −
[21]
  Colour: +
[22]
  Colour: −
[23]
  Colour: −
[24]
  Colour: −
[25]
  Colour: −
[26]
  Colour: −
